The record followed here is ChEMBL document CHEMBL4613223, “Structure-based design of guanosine analogue inhibitors targeting GTP cyclohydrolase IB towards a new class of antibiotics” (Bioorg Med Chem Lett, 2020).

Assay [1] can be described thus: Inhibition of Neisseria gonorrhoeae GCYH1B.
Assay [2] in a line: Inhibition of Thermus thermophilus HB8 GCYH1A expressed in Escherichia coli BL21 (DE3) using GTP as substrate incubated for 60 to 180 mins by spectrofluorimetric analysis.
Assay [3] can be described thus: Inhibition of recombinant full-length Neisseria gonorrhoeae N-terminal His6-tagged GCYH1B expressed in Escherichia coli BL21 (DE3) using GTP as substrate incubated for 50 to 60 mins by fluorescence based assay.
The nature of assay [4]: Inhibition of full-length human GCYH1A expressed in Escherichia coli using GTP as substrate incubated for 30 mins by fluorescence based assay.

`COc1nc2c(=O)[nH]c(N)nc2n1[C@@H]1O[C@H](CO)[C@@H](O)[C@H]1O`: in assay [1], inhibition was half-maximal at 372 µM (IC50).

As to `Nc1nc2c([nH]c(=O)n2[C@@H]2O[C@H](CO[P@@](=O)(O)O[P@@](=O)(O)OP(=O)(O)O)[C@@H](O)[C@H]2O)c(=O)[nH]1`, the Ki – broadly, the dissociation constant of the complex between target and ligand, obtained from inhibition or displacement – was found to be 0.0054 µM in assay [2] and 0.15 µM in assay [3].

As to `Nc1nc(OC[C@@H](O)CO)c2[nH]c(=O)n([C@@H]3O[C@H](CO)[C@@H](O)[C@H]3O)c2n1`, the IC50 (as a rule, the concentration that inhibits the measured activity by half) in assay [4] stood at 372 µM; in assay [1] it was 164 µM.

For the molecule `Nc1nc(OCCO)c2[nH]c(=O)n([C@@H]3O[C@H](CO)[C@@H](O)[C@H]3O)c2n1`, the IC50 in assay [4] stood at 221 µM; in assay [1] it was 413 µM.

For the molecule `Nc1nc(OC[C@H](O)CO)c2[nH]c(=O)n([C@@H]3O[C@H](CO)[C@@H](O)[C@H]3O)c2n1`, the results for the IC50 in assay [4] and in assay [1] were 409 µM and 134 µM, respectively.
